From the NIST ThermoML archive (doi:10.1016/j.tca.2015.10.015)
± gives the expanded uncertainty stated by the source.

What was measured:
[1] = Crystal; DTA
[2] = Molar enthalpy of transition or fusion; details: Crystal; DSC

Row | SMILES | Normal melting temperature [1] [°C] | Molar enthalpy of transition or fusion [2] [kcal/mol]
1 | CCCCCCCCCCCCOC(=O)CCC(=O)O [butanedioic acid, monododecyl ester] | 45.80 ± 2.1 | 12.7 ± 0.335
2 | CCCCCCCCCCCCCCCCCCCCCCOC(=O)/C=C\C(=O)O [maleic acid monodocosyl ester] | 82.00 ± 5 | 20.8 ± 0.55
3 | CCCCCCCCCCCCOC(=O)/C=C\C(=O)O [maleic acid monododecyl ester] | 51.30 ± 4 | 12.4 ± 0.335

The remaining lines, values ahead:

Row | Normal melting temperature [1] [°C] | Molar enthalpy of transition or fusion [2] [kcal/mol] | SMILES
4 | 71.80 ± 3 | 17.1 ± 0.454 | CCCCCCCCCCCCCCCCOC(=O)/C=C\C(=O)O [maleic acid monohexadecyl ester]
5 | 31.10 ± 3 | 7.93 ± 0.215 | CCCCCCCCOC(=O)/C=C\C(=O)O [maleic acid monooctyl ester]
6 | 73.60 ± 1.1 | 22.2 ± 0.574 | CCCCCCCCCCCCCCCCCCCCCCOC(=O)CCC(=O)O [succinic acid monodocosyl ester]
7 | 64.20 ± 1.1 | 15.8 ± 0.43 | CCCCCCCCCCCCCCCCOC(=O)CCC(=O)O [succinic acid monohexadecyl ester]
8 | 36.50 ± 1.1 | 9.99 ± 0.263 | CCCCCCCCOC(=O)CCC(=O)O [succinic acid monooctyl ester]
